Drawing on patent US11312724B2 (ASCENTAGE PHARMA (SUZHOU) CO., LTD., priority 2021, dated 2022), this text covers IC50 for 14 molecules.

What is called IC50 is the concentration that inhibits the measured activity by half. A higher IC50 goes with lower potency.

One test has as its system NCI-H358 cell. The test can be described thus: Cell proliferation assay (Celltiter-Glo), NCI-H358. It is filed as cell-based. The following applies: Homo sapiens, NCI-H358, 72 h, 3 days. The procedure:
(§1) Cell Proliferation Assay:
(§2) NCI-H358 cell and MIA PaCa-2 cell was cultured in RPMI-1640 supplemented with 10% FBS in humidified incubator at 37° C., 5% CO2. To asses the effect of Compounds of the Disclosure on cell proliferation, exponentially growing cells (5000 cells/well) were plated onto 96-well plates. After cell seeding, a representative Compounds of the Disclosure were added to the cell media (in concentrations ranging from 0 to 10 μM, 3/dilution series). After 3 days, 30 μL Celltiter-Glo reagent was added, and the luminescent signal was determined according to supplier's instruction. The dose response curves and IC50 values were generated using Prism.
On the technique in general: Cellular ATP, detected with luciferase, serves as a proxy for viable cell number.

For the next test, the system named is MIA PaCa-2 cell. Put plainly: Cell proliferation assay (Celltiter-Glo), MIA PaCa-2. Type of test: cell-based. The following applies: Homo sapiens, MIA PaCa-2, 72 h, 3 days. The procedure:
as §1, §2

As to `C=CC(=O)N1CCN(c2nc(OC[C@@H]3CCCN3C)nc3c2CCC2(C3)CN(C)C(=O)c3ccccc32)C[C@@H]1CC#N` (stereo partly drawn) [Cpd. No. 37, 2-((2S)-1-acryloyl-4-(2-methyl-2′-(((S)-1-methylpyrrolidin-2-yl)methoxy)-1-oxo-2,3,5′,8′-tetrahydro-1H,6′H-spiro[isoquinoline-4,7′-quinazolin]-4′-yl)piperazin-2-yl)acetonitrile], the IC50 in the test with NCI-H358 cell and in the test with MIA PaCa-2 cell was over 10000 nM in each case.

Turning to `C=CC(=O)N1CCN(c2nc(OC[C@@H]3CCCN3C)nc3c2CCC2(COC(C)c4ccccc42)C3)C[C@@H]1CC#N` (stereo partly drawn) [Cpd. No. 32, 2-((2S)-1-acryloyl-4-(1-methyl-2′-(((S)-1-methylpyrrolidin-2-yl)methoxy)-5′,8′-dihydro-6′H-spiro[isochromane-4,7′-quinazolin]-4′-yl)piperazin-2-yl)acetonitrile], the IC50 was 83 nM in the test on NCI-H358 cell and 22 nM in the test with MIA PaCa-2 cell.

For `C=CC(=O)N1CCN(c2nc(OC[C@@H]3CCCN3C)nc3c2CCC2(COC(C(F)(F)F)c4ccccc42)C3)C[C@@H]1CC#N` (stereo partly drawn) [Cpd. No. 33, 2-((2S)-1-acryloyl-4-(2′-(((S)-1-methylpyrrolidin-2-yl)methoxy)-1-(trifluoromethyl)-5′,8′-dihydro-6′H-spiro[isochromane-4,7′-quinazolin]-4′-yl)piperazin-2-yl)acetonitrile], the IC50 worked out at 45 nM in the test on NCI-H358 cell and 30 nM in the test on MIA PaCa-2 cell.

On to `C=CC(=O)N1CCN(c2nc(OC[C@@H]3CCCN3C)nc3c2CCC2(CCc4ccccc42)C3)[C@@H](C)C1` (stereo partly drawn) [Cpd. No. 10, 1-((3S)-3-methyl-4-(2′-(((S)-1-methylpyrrolidin-2-yl)methoxy)-2,3,5′,8′-tetrahydro-6′H-spiro[indene-1,7′-quinazolin]-4′-yl)piperazin-1-yl)prop-2-en-1-one], for which the IC50 in the test on NCI-H358 cell was 2230 nM; with MIA PaCa-2 cell it was 1180 nM.

Consider `C=CC(=O)N1CCN(c2nc(OC[C@@H]3CCCN3C)nc3c2CCC2(COCc4cccc(F)c42)C3)C[C@@H]1CC#N` (stereo partly drawn) [Cpd. No. 27, 2-((2S)-1-acryloyl-4-(5-fluoro-2′-(((S)-1-methylpyrrolidin-2-yl)methoxy)-5′,8′-dihydro-6′H-spiro[isochromane-4,7′-quinazolin]-4′-yl)piperazin-2-yl)acetonitrile], for which the IC50 was found to be 55 nM with NCI-H358 cell and 19 nM with MIA PaCa-2 cell.

In the case of `C=C(F)C(=O)N1CCN(c2nc(OC[C@@H]3CCCN3C)nc3c2CCC2(CCCc4ccccc42)C3)C[C@@H]1CC#N` (stereo partly drawn) [Cpd. No. 13, 2-((2S)-1-(2-fluoroacryloyl)-4-(2′-(((S)-1-methylpyrrolidin-2-yl)methoxy)-3,4,5′,8′-tetrahydro-2H,6′H-spiro[naphthalene-1,7′-quinazolin]-4′-yl)piperazin-2-yl)acetonitrile], the IC50 in the test with NCI-H358 cell was 290 nM; in the test with MIA PaCa-2 cell, 220 nM.

On to `COC/C=C/C(=O)N1CCN(c2nc(OC[C@@H]3CCCN3C)nc3c2CCC2(CCc4ccccc42)C3)C[C@@H]1CC#N` (stereo partly drawn) [Cpd. No. 40, 2-((2S)-1-((E)-4-methoxybut-2-enoyl)-4-(2′-(((S)-1-methylpyrrolidin-2-yl)methoxy)-2,3,5′,8′-tetrahydro-6′H-spiro[indene-1,7′-quinazolin]-4′-yl)piperazin-2-yl)acetonitrile], for which the IC50 is 560 nM in the test with NCI-H358 cell and 440 nM in the test on MIA PaCa-2 cell.

For the molecule `CN1CCC[C@H]1COc1nc2c(c(N3CCN(C(=O)/C=C/CF)[C@@H](CC#N)C3)n1)CCC1(CCc3ccccc31)C2` (stereo partly drawn) [Cpd. No. 43, 2-((2S)-1-((E)-4-fluorobut-2-enoyl)-4-(2′-(((S)-1-methylpyrrolidin-2-yl)methoxy)-2,3,5′,8′-tetrahydro-6′H-spiro[indene-1,7′-quinazolin]-4′-yl)piperazin-2-yl)acetonitrile], the results for the IC50 with NCI-H358 cell and in the test with MIA PaCa-2 cell were 120 nM and 130 nM, respectively.

Turning to `C=CC(=O)N1CCN(c2nc(OC[C@@H]3CCCN3C)nc3c2CCC2(COCc4ccccc42)C3)C[C@@H]1CC#N` (stereo partly drawn) [Cpd. No. 24, 2-((2S)-1-acryloyl-4-(2′-(((S)-1-methylpyrrolidin-2-yl)methoxy)-5′,8′-dihydro-6′H-spiro[isochromane-4,7′-quinazolin]-4′-yl)piperazin-2-yl)acetonitrile], the IC50 was found to be 11 nM with NCI-H358 cell and 6 nM in the test with MIA PaCa-2 cell.

Consider `C=C(F)C(=O)N1CCN(c2nc(OCC34CCCN3CCC4)nc3c2CC[C@@]2(CCc4c(Cl)cccc42)C3)C[C@@H]1CC#N` [Cpd. No. 45, 2-((S)-4-((R)-4-chloro-2′-((tetrahydro-1H-pyrrolizin-7a(5H)-yl)methoxy)-2,3,5′,8′-tetrahydro-6′H-spiro[indene-1,7′-quinazolin]-4′-yl)-1-(2-fluoroacryloyl)piperazin-2-yl)acetonitrile], for which the IC50 in the test with NCI-H358 cell worked out at 7.6 nM; with MIA PaCa-2 cell, 2.8 nM.

Consider `C=CC(=O)N1CCN(c2nc(OC[C@@H]3CCCN3C)nc3c2CCC2(COCc4c(F)cccc42)C3)C[C@@H]1CC#N` (stereo partly shown) [compound 26], for which the IC50 with NCI-H358 cell was determined as 2.2 nM; in the test on MIA PaCa-2 cell it was 1.8 nM.

Consider `C=CC(=O)N1CCN(c2nc(OC[C@@H]3CCCN3C)nc3c2CCC2(CCc4ccc(C)cc42)C3)C[C@@H]1CC#N` (stereo partly drawn) [Cpd. No. 12, 2-((2S)-1-acryloyl-4-(6-methyl-2′-(((S)-1-methylpyrrolidin-2-yl)methoxy)-2,3,5′,8′-tetrahydro-6′H-spiro[indene-1,7′-quinazolin]-4′-yl)piperazin-2-yl)acetonitrile], for which the values for the IC50 in the test on NCI-H358 cell and in the test with MIA PaCa-2 cell were 65 nM and 55 nM, respectively.

`C=CC(=O)N1CCN(c2nc(OC[C@@H]3CCCN3C)nc3c2CCC2(C3)OCCc3ccccc32)C[C@@H]1CC#N` (stereo partly drawn) [Cpd. No. 6, 2-((2S)-1-acryloyl-4-(2′-(((S)-1-methylpyrrolidin-2-yl)methoxy)-5′,8′-dihydro-6′H-spiro[isochromane-1,7′-quinazolin]-4′-yl)piperazin-2-yl)acetonitrile]: the IC50 in the test with NCI-H358 cell came out at 210 nM; with MIA PaCa-2 cell, 170 nM.

For the molecule `C=CC(=O)N1CCN(c2nc(OC[C@@H]3CCCN3C)nc3c2CCC2(CCCc4ccccc42)C3)CC1` (stereo partly drawn) [Cpd. No. 7, 1-(4-(2′-(((S)-1-methylpyrrolidin-2-yl)methoxy)-3,4,5′,8′-tetrahydro-2H,6′H-spiro[naphthalene-1,7′-quinazolin]-4′-yl)piperazin-1-yl)prop-2-en-1-one], the IC50 amounted to 1390 nM in the test with NCI-H358 cell and 850 nM in the test with MIA PaCa-2 cell.
